Source: patent US20060069013A1, “Pharmaceutical preparations comprising acid-stabilised insulin” (Novo Nordisk A/S, priority 2003, published 2006)

Conditions: not given

Row | Compound | melting point [°C]
1 | O=C1NC(=O)/C(=C/c2ccc3cc(O)ccc3c2)S1 [Example 171, 5-(6-Hydroxy-2-naphthylmethylene) thiazolidine-2,4-dione] | 310 to 314
2 | O=C1NC(=O)/C(=C/c2c(Cl)cccc2Cl)S1 [Example 229, 5-(2,6-Dichlorobenzylidene)thiazolidine-2,4-dione] | 152 to 154
3 | COc1cc(O)cc(OC)c1/C=C1\SC(=O)NC1=O [Example 234, 5-(4-Hydroxy-2,6-dimethoxybenzylidene)thiazolidine-2,4-dione] | 331 to 333
4 | COc1cc(C=C2SC(=O)NC2=O)cc(I)c1O [Example 167, 5-(4-Hydroxy-3-iodo-5-methoxybenzylidene)thiazolidine-2,4-dione] | 256
5 | O=C1NC(=O)/C(=C/c2c[nH]c3ccc([N+](=O)[O-])cc23)S1 [Example 199, 5-(5-Nitro-1H-indol-3-ylmethylene)thiazolidine-2,4-dione] | 330 to 333

Second part, the compound after the results:

Row | melting point [°C] | Compound
6 | 338 to 347 | O=C1NC(=O)/C(=C/c2cc3ccccc3[nH]c2=O)S1 [Example 242, 5-(2-Oxo-1,2-dihydroquinolin-3-ylmethylene)thiazolidine-2,4-dione]
7 | 251 to 254 | O=C1NC(=O)/C(=C/C(Cl)=C/c2ccccc2)S1 [Example 241, 5-(2-Chloro-3-phenylallylidene)thiazolidine-2,4-dione]
8 | 203 to 210 | CC(/C=C1\SC(=O)NC1=O)=C\c1ccccc1 [Example 240, 5-(2-Methyl-3-phenylallylidene)thiazolidine-2,4-dione]
9 | 200 to 202 | c1cc(COc2ccc3ccccc3c2)cc(-c2nnn[nH]2)c1 [Example 572, 5-(3-(Naphthalen-2-yloxymethyl)-phenyl)-1H-tetrazole]
10 | 265 to 266 | O=C1NC(=O)/C(=C/c2cc3ccccc3o2)S1 [Example 238, 5-Benzofuran-2-ylmethylenethiazolidine-2,4-dione]
11 | 259 to 263 | CN(C)c1ccc(/C=C/C=C2\SC(=O)NC2=O)cc1 [Example 239, 5-[3-(4-Dimethylaminophenyl)allylidene]thiazolidine-2,4-dione]
12 | 255 to 256 | COc1cc(OCc2c(F)cccc2[N+](=O)[O-])cc(OC)c1/C=C1\SC(=O)NC1=O [Example 237, 5-[4-(2-Fluoro-6-nitrobenzyloxy)-2,6-dimethoxybenzylidene]thiazolidine-2,4-dione]

Conditions: after subcutaneous injection of a soluble preparation; background statement; cited from earlier work

Row | Compound | absorption rates
13 | Co^3+-hexamer: "absorption rates vary between about 1 hour (for rapid-acting insulin analogues ...) and about 4 hours (Co^3+-hexamer)" | about 4 hour

Same assay, conditions: in vivo, sc; cited from earlier work

Row | Compound | absorption half-life | absorption rates
14 | soluble human insulin hexamer: "inherent limitation of the absorption half-life to about 4 hours for a soluble human insulin hexamer" | about 4 hours | –
15 | Asp^B28 human insulin | – | about 1 hour
